Data: US7728038B2, “Methods for chelation therapy” (priority 2004, dated 2010)
Marks after values point to notes of the source that are not given here.

Columns and labels:
horse spleen ferritin = target: T1, horse spleen ferritin (Equus caballus, UniProt P02791+Q8MIP0); assay: Removal of iron from ferritin by incubation with chelators; assay type: biochemical; settings: Tris buffer 25 mM, pH 7.5, 37° C., chelator 0.47 mM, DFO 0.19 mM, up to 72 h
T1 construct: incubation of horse spleen ferritin with chelators 1a and 1b; from tissue; host or cells: horse spleen
T1 sequence (P02791 2-175 limits assumed): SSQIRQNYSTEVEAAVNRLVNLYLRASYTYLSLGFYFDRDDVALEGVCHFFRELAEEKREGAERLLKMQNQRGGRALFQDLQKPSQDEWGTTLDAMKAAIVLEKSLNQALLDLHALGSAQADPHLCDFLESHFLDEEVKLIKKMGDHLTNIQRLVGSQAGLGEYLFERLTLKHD
T1 sequence (Q8MIP0 whole entry): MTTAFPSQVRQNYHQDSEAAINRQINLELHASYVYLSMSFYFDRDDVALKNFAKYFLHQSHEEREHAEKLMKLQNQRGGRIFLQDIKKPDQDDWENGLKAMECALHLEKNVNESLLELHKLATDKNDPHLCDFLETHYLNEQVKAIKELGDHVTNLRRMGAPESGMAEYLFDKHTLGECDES
Experimental: These chelators reacted with iron (III) forming purple complexes (UV: λmax=456 nm (ε4.6×10^3) for 1a; λmax=459 nm (λ4.45×10^3) for 1b) which have the chelator iron stoichiometry of 3:1. […] The chelators can also react with Al and Zn forming white powder complexes, and with Cu forming a green colored complex. These complexes were very soluble in water. […] The removal of iron from ferritin was determined by incubation of horse spleen ferritin with chelators 1a and 1b in Tris buffer (25 mM, pH 7.5, 37° C.) at a concentration of 0.47 mM, using DFO (0.19 mM) as a reference chelator similar to that described by Kontoghiorghes. The concentrations of the iron complex were measured spectrophotometrically from λmax values. The kinetics of iron release were investigated for a of period up to 72 h.

ovariectomized (Ovx) rat [1] = assay: EPR free iron (BC) and LLOFR (NC) of humeral bone, OVX rats treated with estradiol; assay type: in vivo; settings: 17b-estradiol 10 μg/kg IP three times a week, 60 days post-surgery
Experimental: EPR-osseous tissue sample preparation and measurement: Samples of human femoral cortical bone preserved in 70% alcohol were initially crushed into large pieces (<1 mm) using a mortar and pestle. The granules were defatted with 10 changes of acetone and dried at 60° C. The samples then were further crushed and sieved to obtain a 250-600 micrometer fraction. The EPR measurement of approximately 100 mg of sample were made at 24° C. with values for g-factors of 2.00503±0.00019 (NC) and 2.00541±0.00085 (BC) and with widths of 0.916±0.0465 mT (NC) and 2.5 mT (BC) following a modification of known protocols.^74-75 A Bruker 300E spectrometer at 9.7 GHz was used for date collection.
Humeral bones from four groups of 3 or 4 rats (Sprague-Dawley, Charley River) each were evaluated. The baseline group consisting of 3 normal rats were sacrificed at six months of age using Ketamine-Xylazine anesthesia. The other three groups (4 rats each) were sham ovariectomized (SHAM) (one group) or ovariectomized (OVX) (two groups) at the same age. Bilateral ovariectomy was performed using a dorsal approach under aseptic conditions with Ketamine-Xylazine anesthesia.^76 One group of OVX animals was treated by estradiol IP injection with 10 μg/kg body weight of 17b-estradiol in benzyl alcohol/corn oil solution (5:95, vol/vol). The injections were three times a week. […]

ovariectomized (Ovx) rat [2] = assay: Free iron contents in humeral cortical bone of Ovx rats by EPR after oral chelation treatment; assay type: in vivo; settings: chelator 100 μmole/kg oral gavage three times a week for 9 weeks, FIG. 1
Experimental: Animal and treatment: Three-month-old female Sprague-Dawley rats (Charles River Laboratory) were obtained and housed with a 12 h light-dark cycle at constant room temperature (24° C.) and humidity. The rats were fed standard rat chow (#8640 Harland Teklad, Madison, Wis.) and water ad libitum. When aged 6 month, the rats were divided into four groups. One group was sacrificed as baseline controls at the beginning of the experiment. The remaining groups were sham operated (one group) or bilaterally ovariectomized (two groups) via a dorsal approach. Chelation treatment started from the second day after surgery and was given three times a week for 9 weeks. The chelator (1-N-Docosyltriethylenetetraminepentaacetic acid, GL22) was dissolved in saline (pH 7.5) and was administrated by oral gavage (100 μmole/kg), while control groups including the sham and Ovx operated animals received vehicle only in the same manner. […]
Iron measurement: Total iron contents of femoral cortical bones of aged women were assessed using ICP-OES performed by Galbraith Laboratories, Inc. (Knoxville, Tenn.). […] Each sample of about 100 mg was mixed with acid solution, microwave digested and measured. […]

ovariectomized (Ovx) rat [3] = assay: pQCT densitometry of lumbar vertebra BMD in chelator-treated Ovx rats; assay type: in vivo
Experimental: (§1) Animal and treatment: Three-month-old female Sprague-Dawley rats (Charles River Laboratory) were obtained and housed with a 12 h light-dark cycle at constant room temperature (24° C.) and humidity. The rats were fed standard rat chow (#8640 Harland Teklad, Madison, Wis.) and water ad libitum. When aged 6 month, the rats were divided into four groups. One group was sacrificed as baseline controls at the beginning of the experiment. The remaining groups were sham operated (one group) or bilaterally ovariectomized (two groups) via a dorsal approach. Chelation treatment started from the second day after surgery and was given three times a week for 9 weeks. The chelator (1-N-Docosyltriethylenetetraminepentaacetic acid, GL22) was dissolved in saline (pH 7.5) and was administrated by oral gavage (100 μmole/kg), while control groups including the sham and Ovx operated animals received vehicle only in the same manner.
(§2) Tissue preparation and analyses: Humeral bone was fixed in 70% ethanol for measurement of tissue iron by EPR. Lumbar vertebrae were first fixed in 10% phosphate buffered formalin for 24 hours, then dehydrated in ascending concentrations of ethanol and embedded in methyl methacrylate. The blocks were trimmed for peripheral computed tomography (pQCT), micro-computed tomography (μ-CT) and later prepared for histomorphometric studies.
pQCT densitometry: The L3 vertebra bodies were examined by pQCT densitometry (Norland Stratec XCT 960A, Birkenfeld, Germany) to determine bone mineral density (BMD) for the part from the middle point to the caudal end, excluding the primary spongiosa. A scout scan of the vertebra was performed, and on the scout view, a reference line was manually placed such that the cross-sectional slice passed through at a distance of 1, 2, 3 and 4 mm from caudal end of lumbar vertebra body. The voxel size was 196 μm. Contour mode 2, Peel mode 20, Cortical mode 2 and threshold 570 for cortical bone was chosen for the analysis. The mean BMD for all of the measured slices was then calculated.

ovariectomized (Ovx) rat [4] = assay: Micro-CT morphometry of lumbar vertebra cancellous bone in chelator-treated Ovx rats; assay type: in vivo
Experimental: as §1, §2
μ-CT measurement: Lumbar vertebra were scanned in all three dimensions with a high-resolution μ-CT (10 μm) (Scanco μCT-40, Scanco Medical, Bassersdorf, Switzerland). The complete third vertebral bodies were scanned with 600 slices, each containing 2048×2048 pixels. The trabecular and cortical part of the bodies were separated with semi-automatically drawn contours. The resulting grey-sclae images were segmented using a low-pass filter to remove noice and a fixed threshold to extract the mineralized bone phase. From the binary images, structural indices were assessed with three-dimensional techniques without model-assumptions of the appearance of trabecular bone and were calculated by measuring three-dimensional distances directly in the travecular network and taking the mean over all voxels. The region of interest was travecular bone in the lumbar vertebral body, excluding the prmary songiosa area, 0.5 mm from the growth plate.

ovariectomized (Ovx) rat [5] = assay: EPR free iron (BC) and LLOFR (NC) of humeral bone, OVX rats treated with GL22; assay type: in vivo; settings: GL22 30 μmol/kg orally three times a week, 60 days post-surgery
Experimental: (§3) In another experiment, four groups of 3 or 4 rats (Sprague-Dawley, Charley River) each were used. The baseline group consisted of 3 normal rats, which were sacrificed at six months of age. The humeral bones were collected for EPR free iron and LLOFR measurements and the whole body bone mineral density (BMD) was assessed by Dual x-ray absorptiometry (Hologic QDR1000 Plus) before necropsy. The other three groups were sham ovariectomized (one group) or ovariectomized (two groups) at the same age. The operation (a dorsal approach of bilateral ovariectomy) was under aseptic conditions with Ketamine-Xylazine anesthesia. One group of OVX animals was treated by chelation therapy with 30 μmol/kg body weight of GL22 in saline solution (pH 7.5). The GL22 was orally administered by intubation with a blunt-ended stainless steel needle three times a week. The other two groups received the saline solution without chelator by the same manner. All groups were sacrificed at 60 days post-surgery to collect humeral bones for EPR free iron and LLOFR measurements. Before the termination, whole body BMD was measured.

ovariectomized (Ovx) rat [6] = assay: Whole body BMD by dual x-ray absorptiometry, OVX rats treated with GL22; assay type: in vivo
Experimental: as §3

[7] = 241-Am retention in whole body and skeletal tissue of rats after GL22 treatment; assay type: in vivo; settings: GL22 50 μmol/rat/day in food for 90 days
Experimental: 12 Male Sprague-Dawley rats from Simonsen Laboratories (Gilroy, Calif.) at about 80 days of age were given an intravenous injection of 241-Am-citrate in a total volume of 0.2 mL. For chelator treatment, the GL22 was dissolved in saline and the pH was adjusted to 7.5 with NaOH. Fourteen days after administration of 241-Am-citrate, a chelator food ration was started at 50 μmol/rat/day for 90 days orally, while the same food ration without chelator was given to controls. 50 μmol of chelator was added to the daily food ration (25 g). The total body retention of 241-Am was measured using a whole body-counter and after necropsy the skeletal tissues were counted for 241-Am content. The experimental protocol was described in an earlier publication. […] The same results have also been found for 239-Pu. Moreover, the excretion of iron from iron overloaded male rats that were treated by chelator was tested. The same rats as above at the age of 180 days were given 10 mg of iron as iron-dextran (Sigma, St. Louis, Mo.) subcutaneously every 3 days for 6 weeks to induce iron overloading. Then, a low iron diet (Teklab diet #80396) was given to the rats for 2 weeks as the baseline iron excretion reached plateau levels, which was determined by GFAA measurement of iron in feces. The chelator treated rats were given 20 g of low iron diet with 30 μmol of GL22 and control rats were given just 20 g of low iron diet each day for 14 days. Feces were collected every day for determination of iron excretion. The samples of feces were placed in glazed porcelain crucibles, dried at 100° C. overnight and ashed in a muffle furnace at 550° C. for 18 h. The ashed feces were dissolved in 4 mL of 3 N HCl and quantitatively transferred to a volumetric flask. The crucibles were then rinsed twice with 5 ml of 0.36 N HCl. The concentration of iron was determined by GFAA spectrophotometry (Perkin Elmer). After 14 days of chelation treatment by oral administration there were significant increases in the amounts of iron found in the feces when compared with controls (Table 7).

iron overload rats = assay: Iron excretion in feces of iron overload rats treated by GL22 (GFAA); assay type: in vivo, rat; settings: 30 μmol GL22 in low iron diet each day for 14 days
Experimental: 12 Male Sprague-Dawley rats from Simonsen Laboratories (Gilroy, Calif.) at about 80 days of age were given an intravenous injection of 241-Am-citrate in a total volume of 0.2 mL. For chelator treatment, the GL22 was dissolved in saline and the pH was adjusted to 7.5 with NaOH. Fourteen days after administration of 241-Am-citrate, a chelator food ration was started at 50 μmol/rat/day for 90 days orally, while the same food ration without chelator was given to controls. 50 μmol of chelator was added to the daily food ration (25 g). The total body retention of 241-Am was measured using a whole body-counter and after necropsy the skeletal tissues were counted for 241-Am content. The experimental protocol was described in an earlier publication. […] The same results have also been found for 239-Pu. Moreover, the excretion of iron from iron overloaded male rats that were treated by chelator was tested. […] Then, a low iron diet (Teklab diet #80396) was given to the rats for 2 weeks as the baseline iron excretion reached plateau levels, which was determined by GFAA measurement of iron in feces. […] The ashed feces were dissolved in 4 mL of 3 N HCl and quantitatively transferred to a volumetric flask. […] The concentration of iron was determined by GFAA spectrophotometry (Perkin Elmer). […]

[8] = system: heavy metal overload animals; settings: in vivo; cited from earlier work
[9] = n-octanol/Tri-HCl buffer system; cited from earlier work
[10] = Ovx rats treated with chelator, lumbar vertebra, pQCT
[11] = chelator-treated Ovx rats, μ-CT

## Cc1c(O)c(=O)ccn1COCCO [1a]
Horse spleen ferritin
  removing iron from ferritin, compared with DFO: more effective than DFO

## CCc1c(O)c(=O)ccn1COCCO [1b]
Horse spleen ferritin
  removing iron from ferritin, compared with DFO: more effective than DFO

## C[C@]12CC[C@@H]3c4ccc(O)cc4CC[C@H]3[C@@H]1CC[C@@H]2O [Estrogen, 17b-estradiol]
Ovariectomized (Ovx) rat [1]
  BC (free iron) of EPR signal of humeral bone: 214.3 ± 11.1^b a.u./mg
  NC (LLOFR) of EPR signal of humeral bone: 1357.5 ± 101.4^b a.u./mg

## CCCCCCCCCCCCCCCCCCCCCCN(CCN(CCN(CCN(CC(=O)O)CC(=O)O)CC(=O)O)CC(=O)O)CC(=O)O [GL22, 1-N-Docosyltriethylenetetraminepentaacetic acid]
Ovariectomized (Ovx) rat [2]
  iron content in bone, percent of that of Ovx rats without chelation treatment: 59.8%
  iron content in bone, percent of that of sham controls: 73.0%
Ovariectomized (Ovx) rat [3]; FIG. 2A, ANOVA p<0.01, 6 rats per group
  Trabecula BMD of spine bone versus Ovx group: significantly higher
Ovariectomized (Ovx) rat [3]; FIG. 2B, ANOVA p<0.05, 6 rats per group
  Total BMD of spine bone versus Ovx group: significantly higher
Ovariectomized (Ovx) rat [3]; Ovx rats treated with chelator
  trabecular BMD compared with sham control: 91.8%
Ovariectomized (Ovx) rat [3]; [10]
  trabecular BMD of the spine, higher than Ovx rats: 20%
  trabecular BMD of the spine, less than sham control: 8.2%
Ovariectomized (Ovx) rat [4]; Ovx rats treated with chelator
  BV/TV compared with sham control: 85.2%
  Tr. Sp. increase compared with sham control: 8%
Ovariectomized (Ovx) rat [4]; [11]
  bone volume to tissue volume (BV/TV), higher than untreated Ovx rats: 9.1%
  trabecular separation (Tr. Sp.), less than OVX controls: 10.2%
Ovariectomized (Ovx) rat [5]
  BC (free iron) in bone: 202.7 ± 32.9^b a.u./mg
  NC (LLOFR) in bone: 1083 ± 127^b a.u./mg
Ovariectomized (Ovx) rat [6]; OVX rats, GL22 30 μmol/kg orally three times a week, 60 days post-surgery
  whole body BMD: 0.188 ± 0.004^b g/cm2
Ovariectomized (Ovx) rat [6]; judged from BMD of chelator-treated OVX rats versus SHAM rats (Table 5)
  removal of Ca from bone: not found to remove Ca from bone
[7]
  241-Am retention, Femur: 4.06 ± 0.08%
  241-Am retention, Humerus: 3.97 ± 0.09%
  241-Am retention, Vertebral body: 4.05 ± 0.23%
[7]; started 14 days after 241-Am-citrate iv
  241-Am retention, Whole body: 50.8 ± 0.7%
Iron overload rats
  Excreted Fe from feces: 1084.62 ± 88.54
[8]
  toxicity in treated heavy metal overload animals: without any indications of toxicity

## Cc1c(O)c(=O)ccn1C [L1, 1,2-dimethyl-3-hydroxyl-4-pyridinone]
[9]
  distribution coefficient (DC): 0.24
